Results as given in paper PMC6704710, “Preclinical evaluation of 3D185, a novel potent inhibitor of FGFR1/2/3 and CSF-1R, in FGFR-dependent and macrophage-dominant cancer models” (Journal of Experimental & Clinical Cancer Research : CR, 2019).

Tests used:
Experiment in all cases: Eurofins kinase panel
Format in all cases: biochemical
Conditions in all cases: read-out: Inhibition rate (%)
[1] = biological target: T1, Pyk2(h) (Homo sapiens, UniProt Q14289)
T1 construct: purchased Eurofins (KinaseProfiler)
T1 sequence (Q14289 whole entry): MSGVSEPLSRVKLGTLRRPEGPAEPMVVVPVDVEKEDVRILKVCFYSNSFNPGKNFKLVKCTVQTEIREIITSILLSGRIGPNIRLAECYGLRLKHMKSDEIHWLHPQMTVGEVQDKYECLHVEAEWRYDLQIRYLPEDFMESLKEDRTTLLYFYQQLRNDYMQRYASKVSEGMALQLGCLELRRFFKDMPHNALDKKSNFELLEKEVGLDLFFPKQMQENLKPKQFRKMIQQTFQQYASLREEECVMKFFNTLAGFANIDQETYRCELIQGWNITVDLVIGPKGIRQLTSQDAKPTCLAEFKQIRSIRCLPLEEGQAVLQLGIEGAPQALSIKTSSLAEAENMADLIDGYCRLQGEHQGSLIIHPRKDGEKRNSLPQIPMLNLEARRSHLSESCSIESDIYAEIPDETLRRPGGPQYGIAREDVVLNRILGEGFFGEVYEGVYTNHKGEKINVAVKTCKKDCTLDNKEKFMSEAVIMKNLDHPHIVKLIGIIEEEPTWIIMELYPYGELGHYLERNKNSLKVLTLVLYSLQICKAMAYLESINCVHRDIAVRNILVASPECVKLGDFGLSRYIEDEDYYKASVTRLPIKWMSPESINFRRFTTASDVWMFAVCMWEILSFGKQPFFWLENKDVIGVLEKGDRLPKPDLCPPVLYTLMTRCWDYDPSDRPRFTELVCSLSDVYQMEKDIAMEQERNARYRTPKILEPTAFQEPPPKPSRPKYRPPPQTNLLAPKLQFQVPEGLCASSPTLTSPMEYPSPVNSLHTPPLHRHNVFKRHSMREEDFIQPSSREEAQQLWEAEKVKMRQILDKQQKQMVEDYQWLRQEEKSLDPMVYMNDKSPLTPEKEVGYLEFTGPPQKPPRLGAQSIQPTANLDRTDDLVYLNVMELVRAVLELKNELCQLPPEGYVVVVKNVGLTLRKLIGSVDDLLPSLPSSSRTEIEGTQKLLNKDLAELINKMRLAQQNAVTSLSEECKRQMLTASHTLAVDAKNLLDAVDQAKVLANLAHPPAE

[2] = biological target: T2, JAK2(h) (Homo sapiens, UniProt O60674)
T2 construct: purchased Eurofins (KinaseProfiler)

[3] = biological target: T3, Rsk3(h) (Homo sapiens, UniProt Q15349)
T3 construct: purchased Eurofins (KinaseProfiler)
T3 sequence (Q15349 whole entry): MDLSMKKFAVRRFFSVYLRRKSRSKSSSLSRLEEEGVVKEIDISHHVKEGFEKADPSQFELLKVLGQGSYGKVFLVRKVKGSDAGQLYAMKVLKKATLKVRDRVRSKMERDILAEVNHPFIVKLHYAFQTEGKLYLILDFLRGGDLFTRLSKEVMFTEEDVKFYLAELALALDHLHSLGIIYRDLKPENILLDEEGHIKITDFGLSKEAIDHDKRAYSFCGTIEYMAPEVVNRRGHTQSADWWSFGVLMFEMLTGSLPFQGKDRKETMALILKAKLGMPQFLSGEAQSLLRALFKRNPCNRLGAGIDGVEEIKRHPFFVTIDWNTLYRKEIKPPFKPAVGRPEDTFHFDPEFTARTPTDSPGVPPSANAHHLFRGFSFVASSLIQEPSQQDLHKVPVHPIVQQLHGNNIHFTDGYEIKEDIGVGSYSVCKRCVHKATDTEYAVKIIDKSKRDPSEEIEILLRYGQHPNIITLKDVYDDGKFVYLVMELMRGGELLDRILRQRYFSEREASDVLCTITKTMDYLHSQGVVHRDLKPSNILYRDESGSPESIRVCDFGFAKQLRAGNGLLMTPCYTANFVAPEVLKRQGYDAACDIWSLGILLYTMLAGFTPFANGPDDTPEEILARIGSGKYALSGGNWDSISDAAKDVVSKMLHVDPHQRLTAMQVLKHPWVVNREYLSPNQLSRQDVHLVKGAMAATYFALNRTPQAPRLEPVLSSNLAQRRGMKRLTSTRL

[4] = biological target: T4, DYRK1B(h) (Homo sapiens, UniProt Q9Y463)
T4 construct: purchased Eurofins (KinaseProfiler)

[5] = biological target: T5, Wee1B(h) (Homo sapiens, UniProt P0C1S8)
T5 construct: purchased Eurofins (KinaseProfiler)
T5 sequence (P0C1S8 whole entry): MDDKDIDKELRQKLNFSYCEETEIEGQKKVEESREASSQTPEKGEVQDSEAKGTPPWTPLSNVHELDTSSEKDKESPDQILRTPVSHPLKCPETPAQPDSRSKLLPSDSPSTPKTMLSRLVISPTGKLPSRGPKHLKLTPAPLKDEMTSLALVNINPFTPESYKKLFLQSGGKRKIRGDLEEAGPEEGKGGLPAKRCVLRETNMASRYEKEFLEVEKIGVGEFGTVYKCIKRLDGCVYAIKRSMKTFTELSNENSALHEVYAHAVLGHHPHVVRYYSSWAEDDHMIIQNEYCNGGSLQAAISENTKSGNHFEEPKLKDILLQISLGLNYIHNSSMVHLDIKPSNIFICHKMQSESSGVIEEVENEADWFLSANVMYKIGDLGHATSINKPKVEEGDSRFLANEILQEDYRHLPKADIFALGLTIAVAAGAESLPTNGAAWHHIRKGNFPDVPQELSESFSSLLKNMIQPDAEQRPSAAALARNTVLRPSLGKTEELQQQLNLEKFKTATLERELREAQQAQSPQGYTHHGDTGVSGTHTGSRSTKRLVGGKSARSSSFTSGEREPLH

[6] = biological target: T6, PAR-1Bα(h) (Homo sapiens, UniProt Q7KZI7)
T6 construct: purchased Eurofins (KinaseProfiler)

[7] = biological target: T7, PDK1(h) (Homo sapiens, UniProt O15530)
T7 construct: purchased Eurofins (KinaseProfiler)
T7 sequence (O15530 1-556): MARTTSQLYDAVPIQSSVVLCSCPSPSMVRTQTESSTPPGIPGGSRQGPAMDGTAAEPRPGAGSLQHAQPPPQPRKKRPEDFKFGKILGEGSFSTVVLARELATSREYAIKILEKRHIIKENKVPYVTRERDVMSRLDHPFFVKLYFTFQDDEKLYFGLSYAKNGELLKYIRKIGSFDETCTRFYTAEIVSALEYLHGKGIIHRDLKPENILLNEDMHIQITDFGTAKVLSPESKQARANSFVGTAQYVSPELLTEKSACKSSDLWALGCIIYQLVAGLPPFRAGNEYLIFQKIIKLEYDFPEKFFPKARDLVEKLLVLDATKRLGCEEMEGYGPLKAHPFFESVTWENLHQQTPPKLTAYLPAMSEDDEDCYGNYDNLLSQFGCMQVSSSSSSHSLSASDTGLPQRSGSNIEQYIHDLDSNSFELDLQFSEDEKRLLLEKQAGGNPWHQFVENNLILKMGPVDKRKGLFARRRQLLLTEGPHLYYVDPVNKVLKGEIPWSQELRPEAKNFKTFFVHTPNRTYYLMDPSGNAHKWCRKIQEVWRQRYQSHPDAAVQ

[8] = biological target: T8, PRK2(h) (Homo sapiens, UniProt Q16513)
T8 construct: purchased Eurofins (KinaseProfiler)

[9] = biological target: T9, MST1(h) (Homo sapiens, UniProt Q13043)
T9 construct: purchased Eurofins (KinaseProfiler)
T9 sequence (Q13043 1-487): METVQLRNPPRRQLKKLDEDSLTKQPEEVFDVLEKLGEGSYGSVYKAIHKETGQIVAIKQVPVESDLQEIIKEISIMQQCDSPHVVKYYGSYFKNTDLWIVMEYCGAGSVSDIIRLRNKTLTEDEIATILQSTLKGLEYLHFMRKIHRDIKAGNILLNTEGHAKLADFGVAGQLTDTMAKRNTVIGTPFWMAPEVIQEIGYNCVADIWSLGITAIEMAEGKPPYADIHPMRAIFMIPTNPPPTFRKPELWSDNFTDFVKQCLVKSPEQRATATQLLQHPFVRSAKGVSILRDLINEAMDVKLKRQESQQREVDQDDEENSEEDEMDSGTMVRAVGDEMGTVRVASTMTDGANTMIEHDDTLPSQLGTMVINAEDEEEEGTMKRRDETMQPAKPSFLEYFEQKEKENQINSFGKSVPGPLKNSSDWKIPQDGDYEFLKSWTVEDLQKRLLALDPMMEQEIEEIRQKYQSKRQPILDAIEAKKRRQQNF

[10] = biological target: T10, ROCK-I(h) (Homo sapiens, UniProt Q13464)
T10 construct: purchased Eurofins (KinaseProfiler)
T10 sequence (Q13464 whole entry): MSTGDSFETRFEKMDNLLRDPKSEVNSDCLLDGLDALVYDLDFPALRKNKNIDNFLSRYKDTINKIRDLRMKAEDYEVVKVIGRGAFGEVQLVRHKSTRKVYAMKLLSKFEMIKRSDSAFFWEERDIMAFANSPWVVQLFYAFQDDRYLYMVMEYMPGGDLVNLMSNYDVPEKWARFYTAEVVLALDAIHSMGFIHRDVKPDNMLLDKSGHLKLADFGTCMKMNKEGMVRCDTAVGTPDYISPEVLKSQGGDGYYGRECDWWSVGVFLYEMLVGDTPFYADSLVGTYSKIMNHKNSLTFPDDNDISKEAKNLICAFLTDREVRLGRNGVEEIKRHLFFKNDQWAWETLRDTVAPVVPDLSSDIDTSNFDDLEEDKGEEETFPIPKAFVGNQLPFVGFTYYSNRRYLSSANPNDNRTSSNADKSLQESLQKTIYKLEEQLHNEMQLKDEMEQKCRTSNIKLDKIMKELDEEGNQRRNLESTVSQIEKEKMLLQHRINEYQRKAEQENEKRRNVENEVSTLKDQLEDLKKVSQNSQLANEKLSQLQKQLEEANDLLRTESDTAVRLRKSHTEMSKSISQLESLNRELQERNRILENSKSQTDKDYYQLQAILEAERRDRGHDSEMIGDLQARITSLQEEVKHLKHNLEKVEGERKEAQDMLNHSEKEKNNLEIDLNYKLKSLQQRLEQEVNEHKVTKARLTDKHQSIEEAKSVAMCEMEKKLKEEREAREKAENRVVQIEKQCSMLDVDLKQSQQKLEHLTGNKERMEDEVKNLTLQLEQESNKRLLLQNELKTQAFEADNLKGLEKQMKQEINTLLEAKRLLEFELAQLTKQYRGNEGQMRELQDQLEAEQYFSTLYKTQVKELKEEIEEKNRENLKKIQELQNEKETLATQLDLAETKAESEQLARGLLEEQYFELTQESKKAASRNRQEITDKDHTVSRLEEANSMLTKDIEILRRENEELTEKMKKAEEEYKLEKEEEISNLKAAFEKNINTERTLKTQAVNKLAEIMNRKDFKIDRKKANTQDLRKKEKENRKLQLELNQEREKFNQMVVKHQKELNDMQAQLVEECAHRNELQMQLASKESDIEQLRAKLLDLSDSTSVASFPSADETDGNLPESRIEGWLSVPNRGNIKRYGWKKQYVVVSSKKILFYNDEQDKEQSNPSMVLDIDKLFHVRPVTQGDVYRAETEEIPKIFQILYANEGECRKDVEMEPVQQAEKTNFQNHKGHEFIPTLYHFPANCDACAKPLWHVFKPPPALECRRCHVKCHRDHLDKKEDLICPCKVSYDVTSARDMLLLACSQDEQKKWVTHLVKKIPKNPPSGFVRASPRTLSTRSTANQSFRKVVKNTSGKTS

[11] = biological target: T11, CDK18/cyclinY(h) (Homo sapiens, UniProt Q07002)
T11 construct: purchased Eurofins (KinaseProfiler)
T11 sequence (Q07002 whole entry): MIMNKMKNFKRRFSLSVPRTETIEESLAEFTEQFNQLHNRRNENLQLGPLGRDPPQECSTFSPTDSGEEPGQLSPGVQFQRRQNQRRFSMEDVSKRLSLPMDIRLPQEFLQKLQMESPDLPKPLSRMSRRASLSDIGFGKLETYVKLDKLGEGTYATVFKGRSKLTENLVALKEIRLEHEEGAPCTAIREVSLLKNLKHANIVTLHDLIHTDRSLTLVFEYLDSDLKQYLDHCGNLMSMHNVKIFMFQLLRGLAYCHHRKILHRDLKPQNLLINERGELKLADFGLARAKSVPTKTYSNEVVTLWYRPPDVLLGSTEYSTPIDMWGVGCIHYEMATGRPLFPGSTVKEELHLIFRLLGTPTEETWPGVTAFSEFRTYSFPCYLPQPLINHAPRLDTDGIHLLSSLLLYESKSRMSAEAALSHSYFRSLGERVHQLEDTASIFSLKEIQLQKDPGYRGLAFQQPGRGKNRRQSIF
T11 sequence (Q8ND76 whole entry partner): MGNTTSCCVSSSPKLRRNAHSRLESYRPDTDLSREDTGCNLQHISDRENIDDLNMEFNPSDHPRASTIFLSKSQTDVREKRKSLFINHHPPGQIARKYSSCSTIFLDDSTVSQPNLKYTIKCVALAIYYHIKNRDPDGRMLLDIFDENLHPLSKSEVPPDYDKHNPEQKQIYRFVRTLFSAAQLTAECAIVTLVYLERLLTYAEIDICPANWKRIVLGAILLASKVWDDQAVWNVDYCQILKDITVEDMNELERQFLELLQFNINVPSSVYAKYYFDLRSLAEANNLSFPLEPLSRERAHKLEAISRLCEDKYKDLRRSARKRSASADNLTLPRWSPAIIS

[12] = biological target: T12, DRAK2(h) (Homo sapiens, UniProt O94768)
T12 construct: purchased Eurofins (KinaseProfiler)
T12 sequence (O94768 1-372): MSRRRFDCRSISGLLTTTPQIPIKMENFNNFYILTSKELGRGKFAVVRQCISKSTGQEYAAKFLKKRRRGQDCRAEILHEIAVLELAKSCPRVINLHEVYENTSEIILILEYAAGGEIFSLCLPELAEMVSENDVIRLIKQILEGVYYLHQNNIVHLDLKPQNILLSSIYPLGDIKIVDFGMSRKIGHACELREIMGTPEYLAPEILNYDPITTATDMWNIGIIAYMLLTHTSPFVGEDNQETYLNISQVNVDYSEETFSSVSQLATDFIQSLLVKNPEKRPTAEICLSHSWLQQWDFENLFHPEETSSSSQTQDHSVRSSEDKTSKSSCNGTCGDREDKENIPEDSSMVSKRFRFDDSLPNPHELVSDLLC

[13] = biological target: T13, EGFR(L861Q)(h) (Homo sapiens, UniProt P00533, L861Q)
T13 construct: purchased Eurofins (KinaseProfiler)

[14] = biological target: T14, PI3 Kinase (p110β/p85α)(h) (Homo sapiens, UniProt P42338)
T14 construct: purchased Eurofins (KinaseProfiler)

COc1cc(OC)c(Cl)c(-c2ccc3c(NC(=O)c4ccc(N5CCNC(C)(C)C5)cc4)n[nH]c3n2)c1Cl [3D185]
inhibition at 0.01 µM ([1]; 10 nM): 2%
inhibition at 0.1 µM ([1]; 100 nM): 24%
inhibition at 1 µM ([1]; 1000 nM): 71%
inhibition at 0.01 µM ([2]; 10 nM): -14%
inhibition at 0.1 µM ([2]; 100 nM): 5%
inhibition at 1 µM ([2]; 1000 nM): 6%
inhibition at 0.01 µM ([3]; 10 nM): -17%
inhibition at 0.1 µM ([3]; 100 nM): -19%
inhibition at 1 µM ([3]; 1000 nM): -15%
inhibition at 0.01 µM ([4]; 10 nM): 12%
inhibition at 0.1 µM ([4]; 100 nM): 3%
inhibition at 1 µM ([4]; 1000 nM): 3%
inhibition at 0.01 µM ([5]; 10 nM): 9%
inhibition at 0.1 µM ([5]; 100 nM): -2%
inhibition at 1 µM ([5]; 1000 nM): 9%
inhibition at 0.01 µM ([6]; 10 nM): -4%
inhibition at 0.1 µM ([6]; 100 nM): -3%
inhibition at 1 µM ([6]; 1000 nM): 2%
inhibition at 0.01 µM ([7]; 10 nM): -5%
inhibition at 0.1 µM ([7]; 100 nM): -14%
inhibition at 1 µM ([7]; 1000 nM): -4%
inhibition at 0.01 µM ([8]; 10 nM): 12%
inhibition at 0.1 µM ([8]; 100 nM): 4%
inhibition at 1 µM ([8]; 1000 nM): 3%
inhibition at 0.01 µM ([9]; 10 nM): 2%
inhibition at 0.1 µM ([9]; 100 nM): 11%
inhibition at 1 µM ([9]; 1000 nM): 32%
inhibition at 0.01 µM ([10]; 10 nM): -2%
inhibition at 0.1 µM ([10]; 100 nM): -12%
inhibition at 1 µM ([10]; 1000 nM): -3%
inhibition at 0.01 µM ([11]; 10 nM): 10%
inhibition at 0.1 µM ([11]; 100 nM): 12%
inhibition at 1 µM ([11]; 1000 nM): 15%
inhibition at 0.01 µM ([12]; 10 nM): -5%
inhibition at 0.1 µM ([12]; 100 nM): -13%
inhibition at 1 µM ([12]; 1000 nM): 3%
inhibition at 0.01 µM ([13]; 10 nM): -5%
inhibition at 0.1 µM ([13]; 100 nM): -5%
inhibition at 1 µM ([13]; 1000 nM): 39%
inhibition at 0.01 µM ([14]; 10 nM): 0%
inhibition at 0.1 µM ([14]; 100 nM): 1%
inhibition at 1 µM ([14]; 1000 nM): 4%
